Measurements as given in patent publication US20110034384A1, “COMBINATION VEGFR2 THERAPY WITH mTOR INHIBITORS” (Bristol-Myers Squibb Company, priority 2007, published 2011).
Entries after “also recorded” stand apart in the source; their conditions may differ.

How the values were obtained:
Format in all cases: in vivo, nude mice
Colo205 tumor [1] = experiment: Colo205 xenograft: Comp-I, Temsirolimus and their combination (Example 1); conditions: for Colo205 tumor growth inhibition (in words): 21 days under treatment, FIG. 1, Table 2; for Tumor Volume Average: i.p., Comp-I 60 mg/kg TIW, Temsirolimus 20 mg/kg BIW, Combo 60/20 mg/kg TIW/BIW
Protocol: Human Colo205 cells were injected subcutaneously into the flanks of nude mice. Mice were randomized and treatments initiated when tumors reached an average size of 235 mm^3. Optimal doses of Comp-I (the VEGFR2 specific inhibitor represented by SEQ ID NO: 4) and Temsilorimus were administered intraperitoneally to Colo-205 tumor bearing-mice in doses and schedules as indicated in Table 1. Tumor growth was evaluated for 21 days under treatment (FIG. 1). Mice were taken off treatment after day 21 until day 57, with a continuous assessment of tumor growth (FIG. 2). Control was euthanized on Day 41. [table] Tumors were measured with calipers twice a week. Tumor volumes (mm^3) were calculated by the formula [π/6 (L×W^2)], where L represents the largest tumor diameter (mm) and W represents the smallest tumor diameter (mm). Tumor measurements were noted as absolute values. Animal body weights were determined weekly during the course of the experiment. Tumor Growth Inhibition (TGI) was calculated as the percent tumor growth of treated (T) groups from control group (vehicle, C). Tumor growth was calculated by subtracting initial tumor volume (at day 0) from the final tumor volume at the end of the experiment. TGI=(1−[T-T0]/[C-C0])*100.

Colo205 tumor [2] = experiment: Colo205 xenograft: Comp-I vs. Bevacizumab, Temsirolimus added at Day 17 (Example 2); conditions: for Day 22 (TV, mm3) (Mean) / Day 22 (TV, mm3) Average ± STDErr: Temsirolimus 10 mg/kg BIW added on Day 17 to Bevacizumab 10 mg/kg BIW, Comp-I 80 mg/kg TIW or vehicle (n = 4); for Day 1 (TV, mm3) (Mean) / Day 1 (TV, mm3) Average ± STDErr: i.p.; for Day 1 (TV, mm3) (Mean) / Day 1 (TV, mm3) Average ± STDErr / Day 19 (TV, mm3) (Mean) / Day 19 (TV, mm3) Average ± STDErr / Percentage of tumor growth inhibition: Bevacizumab 10 mg/kg BIW, Comp-I 80 mg/kg TIW; for Day 19 (TV, mm3) (Mean) / Day 19 (TV, mm3) Average ± STDErr: Temsirolimus 10 mg/kg BIW added on Day 17; for Day 19 (TV, mm3) (Mean) / Day 19 (TV, mm3) Average ± STDErr / Percentage of tumor growth inhibition: Day 19; for Percentage of tumor growth inhibition: Temsirolimus added on Day 17
Protocol: (§1) Tumors were measured with calipers twice a week. Tumor volumes (mm^3) were calculated by the formula [π/6 (L×W^2)], where L represents the largest tumor diameter (mm) and W represents the smallest tumor diameter (mm). Tumor measurements were noted as absolute values. Animal body weights were determined weekly during the course of the experiment. Tumor Growth Inhibition (TGI) was calculated as the percent tumor growth of treated (T) groups from control group (vehicle, C). Tumor growth was calculated by subtracting initial tumor volume (at day 0) from the final tumor volume at the end of the experiment. TGI=(1−[T-T0]/[C-C0])*100.
Human Colo205 cells were injected subcutaneously into the flanks of nude mice. Mice were randomized and treatments initiated when tumors reached an average size of 167 mm^3. Comp-I and Bevacizumab were administered intraperitoneally to Colo-205 tumor bearing-mice in doses and schedules as indicated in Table 4. Temsirolimus treatment (10 mg/kg, BIW) was initiated on Day 17 added to Comp-I and Bevacizumab treatments on Day 17. Half the mice (n=4) in the vehicle group were initiated on torisel the same day and the other half (n=4) remained under vehicle treatment. Both anti-angiogenic treatments reduced […] to similar levels by Day 22 (FIG. 4). Percentage of tumor growth inhibition was determined as follows: Day 19/Comp-I (89%), Day 19/Bevacizumab (87%).

Colo205 tumor [3] = experiment: Colo205 xenograft: Comp-I vs. Bevacizumab, Temsirolimus added at Day 9 (Example 3); conditions: for Day 14 (TV, mm^3) (Mean) / Day 14 (TV, mm^3) Average ± STDErr: Temsirolimus 10 mg/kg BIW added on Day 9 to Bevacizumab 10 mg/kg BIW, Comp-I 80 mg/kg TIW or vehicle (n = 4); for Day 1 (TV, mm^3) (Mean) / Day 1 (TV, mm^3) Average ± STDErr: i.p.; for Day 1 (TV, mm^3) (Mean) / Day 1 (TV, mm^3) Average ± STDErr / Day 8 (TV, mm^3) (Mean) / Day 8 (TV, mm^3) Average ± STDErr / Percentage of tumor growth inhibition: Bevacizumab 10 mg/kg BIW, Comp-I 80 mg/kg TIW; for Day 8 (TV, mm^3) (Mean) / Day 8 (TV, mm^3) Average ± STDErr: Day 8 (before Temsirolimus)
Protocol: as §1
Human Colo205 cells were injected subcutaneously into the flanks of nude mice. Mice were randomized and treatments initiated when tumors reached an average size of 411 mm^3. Comp-I and Bevacizumab were administered intraperitoneally to Colo-205 tumor bearing-mice in doses and schedules as indicated in Table 5. Temsirolimus (10 mg/kg, BIW) was added to Comp-I and Bevacizumab treatments on Day 9. Half the mice (n=4) in the vehicle group were initiated on torisel the same day and the other half (n=4) remained under vehicle treatment Both anti-angiogenic treatments reduced […] to similar levels by Day 14 (FIG. 5).

HT1080 tumor = experiment: HT1080 xenograft: Comp-I vs. Bevacizumab, Temsirolimus added at Day 23 (Example 4); conditions: for Day 1 (TV, mm^3) (Mean) / Day 1 (TV, mm^3) Average ± STDErr / Day 23 (TV, mm^3) (Mean) / Day 23 (TV, mm^3) Average ± STDErr: i.p.
Protocol: Human HT1080 cells were injected subcutaneously into the flanks of nude mice. Mice were randomized and treatments initiated when tumors reached an average size of 201 mm^3. Comp-I and Bevacizumab were administered intraperitoneally to HT1080 tumor bearing-mice in doses and schedules as indicated in Table 6. Temsirolimus (10 mg/kg, BIW) was added to Comp-I and Bevacizumab treatments on Day 23. Both anti-angiogenic treatments reduced […] as measured on Day 27 (FIG. 6).

[4] = Day 11, Temsirolimus 10 mg/kg BIW added on Day 9
[5] = Bevacizumab 5 mg/kg BIW, Comp-I 100 mg/kg TIW
[6] = QW groups: Bevacizumab 5 mg/kg QW, Comp-I 100 mg/kg QW

Molecule | Colo205 tumor growth inhibition (in words) (Colo205 tumor [1]) | Tumor Volume Average (Colo205 tumor [1]; Day 1) | Tumor Volume Average (Colo205 tumor [1]; Day 5) | Tumor Volume Average (Colo205 tumor [1]; Day 8) | Tumor Volume Average (Colo205 tumor [1]; Day 11) | Tumor Volume Average (Colo205 tumor [1]; Day 14) | Tumor Volume Average (Colo205 tumor [1]; Day 19) | Tumor Volume Average (Colo205 tumor [1]; Day 21) | Day 22 (TV, mm3) (Mean) (Colo205 tumor [2]) | Day 22 (TV, mm3) Average ± STDErr (Colo205 tumor [2]) | Day 14 (TV, mm^3) (Mean) (Colo205 tumor [3]) | Day 14 (TV, mm^3) Average ± STDErr (Colo205 tumor [3]) | Day 1 (TV, mm3) (Mean) (Colo205 tumor [2]) | Day 1 (TV, mm3) Average ± STDErr (Colo205 tumor [2]) | Day 19 (TV, mm3) (Mean) (Colo205 tumor [2]) | Day 19 (TV, mm3) Average ± STDErr (Colo205 tumor [2]) | Percentage of tumor growth inhibition (Colo205 tumor [2]) | Day 1 (TV, mm^3) (Mean) (Colo205 tumor [3]) | Day 1 (TV, mm^3) Average ± STDErr (Colo205 tumor [3]) | Day 8 (TV, mm^3) (Mean) (Colo205 tumor [3]) | also measured
CO[C@H]1C[C@@H]2CC[C@@H](C)[C@@](O)(O2)C(=O)C(=O)N2CCCC[C@H]2C(=O)O[C@H]([C@H](C)C[C@@H]2CC[C@@H](OC(=O)C(C)(CO)CO)[C@H](OC)C2)CC(=O)[C@H](C)/C=C(\C)[C@@H](O)[C@@H](OC)C(=O)[C@H](C)C[C@H](C)/C=C/C=C/C=C/1C [Temsirolimus, temsirolimus] | equally inhibited | 237.19 mm^3 | 287.19 mm^3 | 313.73 mm^3 | 354.14 mm^3 | 378.44 mm^3 | 395.95 mm^3 | 422.42 mm^3 | 667.5 mm3 | 612.3 ± 99.5 mm3 | 821.1 mm^3 | 849.6 ± 106.6 mm^3 |  |  |  |  |  |  |  |  | 
Bevacizumab: anti-angiogenic treatment; Bevacizumab-mediated VEGF inhibition |  |  |  |  |  |  |  |  | 250.7 mm3 | 246.5 ± 21.2 mm3 | 458.9 mm^3 | 455.1 ± 36.2 mm^3 | (166.7) mm3 | 167.7 ± 7.7 mm3 | (299.2) mm3 | 290.3 ± 24.6 mm3 | 87% | (398.6) mm^3 | 413.0 ± 32.9 mm^3 | (511.8) mm^3 | Day 8 (TV, mm^3) Average ± STDErr (Colo205 tumor [3]): 519.0 ± 50.0 mm^3; Percentage of tumor growth inhibition (Colo205 tumor [3]; Day 8): 38.99%; Percentage of tumor growth inhibition (Colo205 tumor [3]; [4]): 82.2%; Day 1 (TV, mm^3) (Mean) (HT1080 tumor; [5]): 191.9 mm^3; Day 1 (TV, mm^3) Average ± STDErr (HT1080 tumor; [5]): 201.6 ± 19.1 mm^3; Day 1 (TV, mm^3) (Mean) (HT1080 tumor; [6]): 195.8 mm^3; Day 1 (TV, mm^3) Average ± STDErr (HT1080 tumor; [6]): 202.0 ± 18.8 mm^3; Day 23 (TV, mm^3) (Mean) (HT1080 tumor; [5]): 517.4 mm^3; Day 23 (TV, mm^3) Average ± STDErr (HT1080 tumor; [5]): 486.9 ± 34.6 mm^3; Day 23 (TV, mm^3) (Mean) (HT1080 tumor; [6]): 598.3 mm^3; Day 23 (TV, mm^3) Average ± STDErr (HT1080 tumor; [6]): 619.3 ± 69.6 mm^3
Comp-I: the VEGFR2 specific inhibitor represented by SEQ ID NO: 4; a VEGFR-2 binding 10Fn3 fibronectin based scaffold polypeptide (protein) GEVVAATPTSLLISWRHPHFPTRYYRITYGETGGNSPVQEFTVPLQPPTATISGLKPGVDYTITVYAVTDGRNGRLLSIPISINYRTEIDKPCQ | inhibits Colo205 tumor growth to the same extent as the mTOR inhibitor Temsirolimus; also recorded: equally inhibited | 235.25 mm^3 | 301.95 mm^3 | 325.42 mm^3 | 369.21 mm^3 | 403.32 mm^3 | 426.71 mm^3 | 455.84 mm^3 | 247.1 mm3 | 239.4 ± 18.3 mm3 | 449.2 mm^3 | 444.6 ± 30.2 mm^3 | (166.2) mm3 | 167.4 ± 8.1 mm3 | (293.1) mm3 | 289.4 ± 21.5 mm3 | 89% | (417.2) mm^3 | 413.5 ± 28.7 mm^3 | (505.8) mm^3 | Day 8 (TV, mm^3) Average ± STDErr (Colo205 tumor [3]): 502.5 ± 33.6 mm^3; Percentage of tumor growth inhibition (Colo205 tumor [3]; Day 8): 53.03%; Percentage of tumor growth inhibition (Colo205 tumor [3]; [4]): 91.5%; Day 1 (TV, mm^3) (Mean) (HT1080 tumor; [5]): 183.4 mm^3; Day 1 (TV, mm^3) Average ± STDErr (HT1080 tumor; [5]): 205.1 ± 20.9 mm^3; Day 1 (TV, mm^3) (Mean) (HT1080 tumor; [6]): 207.0 mm^3; Day 1 (TV, mm^3) Average ± STDErr (HT1080 tumor; [6]): 203.4 ± 18.7 mm^3; Day 23 (TV, mm^3) (Mean) (HT1080 tumor; [5]): 460.5 mm^3; Day 23 (TV, mm^3) Average ± STDErr (HT1080 tumor; [5]): 432.8 ± 23.6 mm^3; Day 23 (TV, mm^3) (Mean) (HT1080 tumor; [6]): 492.9 mm^3; Day 23 (TV, mm^3) Average ± STDErr (HT1080 tumor; [6]): 533.4 ± 47.9 mm^3; sensitivity of tumor growth, Comp-I vs. Bevacizumab (in words) (HT1080 tumor; HT1080 model): tumor growth is more sensitive to Comp-1-mediated VEGFR-2 inhibition than to Bevacizumab-mediated VEGF inhibition
